# Test results: patent US20230330188A1, “PHARMACEUTICAL COMBINATION FOR USE IN THE TREATMENT AND/OR PREVENTION OF DIABETES” (INSPHERO AG, priority 2020, published 2023)
# Test system: 3D InSight™ Human Islet Microtissues
# Experiment: Glucose-stimulated insulin secretion (GSIS) after 13 days of glucolipotoxicity (GLTX) induced islet injury
# Format: cell-based
# Settings: GSIS at 16.7 mM glucose, vs GLTX group
Compound,"glucose-stimulated insulin secretion (GSIS) (FIG. 3, long-term (13 days) treatment with 10 μM verapamil alone in glucolipotox medium)","glucose-stimulated insulin secretion (GSIS) (FIG. 2, long-term (13 days) treatment with 1 μM semaglutide alone in glucolipotox medium)"
COc1ccc(CCN(C)CCCC(C#N)(c2ccc(OC)c(OC)c2)C(C)C)cc1OC (centres unmarked) [verapamil],has a positive influence on GSIS,
semaglutide,,does not improve the GSIS
